Patent US8735414B2 (priority 2009, dated 2014)

Columns and labels:
[1] = system: bicistronic HCV replicon (replicon RNA, GenBank Accession No. AJ242654); assay: HCV Replicon Assay; type: cell-based; conditions: Hepatitis C virus, 72 h, read-out: Replicon IC50

## COc1ccc2c(C#N)c(-c3ccc(S(=O)(=O)N[C@@H](C)C(F)(F)F)cn3)n(C3CCCCC3)c2c1 [compound 519, 6-(3-cyano-1-cyclohexyl-6-methoxy-1H-indol-2-yl)-N-[(2S)-1,1,1-trifluoropropan-2-yl]pyridine-3-sulfonamide]
[1]
  IC50: < 500 nM
other
  melting point: 197 to 204 °C

## Cc1ccnc(-n2c(-c3ccc(S(=O)(=O)N[C@@H](C)C(F)(F)F)cn3)c(C#N)c3cc(F)c(C)cc32)c1 [compound 886, 6-[3-cyano-5-fluoro-6-methyl-1-(4-methylpyridin-2-yl)-1H-indol-2-yl]-N-[(2S)-1,1,1-trifluoropropan-2-yl]pyridine-3-sulfonamide]
[1]
  IC50: < 500 nM
other
  melting point: 200 to 204 °C

## C[C@H](NS(=O)(=O)c1ccc(-c2c(C#N)c3ccc(Cl)cc3n2-c2ccccn2)nc1)C(F)(F)F [compound 437, 6-[6-chloro-3-cyano-1-(pyridin-2-yl)-1H-indol-2-yl]-N-[(2S)-1,1,1-trifluoropropan-2-yl]pyridine-3-sulfonamide]
[1]
  IC50: < 500 nM
other
  melting point: 177 to 178 °C

## Cc1cc2c(cc1F)c(C(N)=O)c(-c1ccc(S(=O)(=O)NC(C)(C)C(F)(F)F)cn1)n2C1CCCC1 [compound 701, 1-cyclopentyl-5-fluoro-6-methyl-2-{5-[(1,1,1-trifluoro-2-methylpropan-2-yl)sulfamoyl]pyridin-2-yl}-1H-indole-3-carboxamide]
[1]
  IC50: < 500 nM
other
  melting point: 211 to 214 °C

## C[C@H](NS(=O)(=O)c1cnc(-c2c(C#N)c3cc(F)ccc3n2C2CCCC2)nc1)C(F)(F)F [compound 547, 2-(3-cyano-1-cyclopentyl-5-fluoro-1H-indol-2-yl)-N-[(2S)-1,1,1-trifluoropropan-2-yl]pyrimidine-5-sulfonamide]
[1]
  IC50: < 500 nM
other
  melting point: 214 to 218 °C

## C[C@H](NS(=O)(=O)c1cnc(-c2c(C#N)c3ccc(CC(F)F)cc3n2CC2CC2)nc1)C(F)(F)F [compound 622, 2-[3-cyano-1-(cyclopropylmethyl)-6-(2,2-difluoroethyl)-1H-indol-2-yl]-N-[(2S)-1,1,1-trifluoropropan-2-yl]pyrimidine-5-sulfonamide]
[1]
  IC50: < 500 nM
other
  melting point: 195 to 205 °C

## Cc1ccc2c(C#N)c(-c3ccc(S(=O)(=O)NC(CF)CF)cn3)n(CC3CC3)c2c1 [compound 81, 6-[3-cyano-1-(cyclopropylmethyl)-6-methyl-1H-indol-2-yl]-N-(1,3-difluoropropan-2-yl)pyridine-3-sulfonamide]
[1]
  IC50: < 500 nM
other
  melting point: 175 to 182 °C

## C[C@@H](NS(=O)(=O)c1cnc(-c2c(C#N)c3ccc(C4CC4)cc3n2C2CCC2)nc1)C(F)(F)F [compound 180, 2-(3-cyano-1-cyclobutyl-6-cyclopropyl-1H-indol-2-yl)-N-[(2R)-1,1,1-trifluoropropan-2-yl]pyrimidine-5-sulfonamide]
[1]
  IC50: 500 to 2000 nM
other
  melting point: 211 to 212 °C

## CCc1cc2c(cc1F)c(C#N)c(-c1ccc(S(=O)(=O)NC(C)(C)C(F)(F)F)cn1)n2C1CCCC1 [compound 672, 6-(3-cyano-1-cyclopentyl-6-ethyl-5-fluoro-1H-indol-2-yl)-N-(1,1,1-trifluoro-2-methylpropan-2-yl)pyridine-3-sulfonamide]
[1]
  IC50: < 500 nM
other
  melting point: 142 to 143 °C

## Cc1c(F)cc2c(C#N)c(-c3ccc(S(=O)(=O)NC4(C(F)(F)F)CC4)cn3)n(C3CCC3)c2c1F [compound 667, 6-(3-cyano-1-cyclobutyl-5,7-difluoro-6-methyl-1H-indol-2-yl)-N-[1-(trifluoromethyl)cyclopropyl]pyridine-3-sulfonamide]
[1]
  IC50: < 500 nM
other
  melting point: 235 to 241 °C

## CC(C)n1c(-c2ccc(S(=O)(=O)N[C@@H](C)C(F)(F)F)cn2)c(C(N)=O)c2c(F)cc(OC(F)F)cc21 [compound 839, 6-(difluoromethoxy)-4-fluoro-1-(propan-2-yl)-2-(5-{[(2S)-1,1,1-trifluoropropan-2-yl]sulfamoyl}pyridin-2-yl)-1H-indole-3-carboxamide]
[1]
  IC50: < 500 nM
other
  melting point: 197 to 198 °C

## CC(C)NS(=O)(=O)c1cnc(-c2c(C#N)c3cc(F)ccc3n2C2CCC2)nc1 [compound 416, 2-(3-cyano-1-cyclobutyl-5-fluoro-1H-indol-2-yl)-N-(propan-2-yl)pyrimidine-5-sulfonamide]
[1]
  IC50: < 500 nM
other
  melting point: 195 to 200 °C

## Cc1ccc2c(C#N)c(-c3ccc(S(=O)(=O)NC(C)(C)C(F)(F)F)cn3)n(-c3ncccn3)c2c1 [compound 689, 6-[3-cyano-6-methyl-1-(pyrimidin-2-yl)-1H-indol-2-yl]-N-(1,1,1-trifluoro-2-methylpropan-2-yl)pyridine-3-sulfonamide]
[1]
  IC50: 500 to 2000 nM
other
  melting point: 202 to 205 °C

## CCc1cc2c(cc1F)c(C#N)c(-c1ccc(S(=O)(=O)N[C@@H](C)C(F)(F)F)c(C)n1)n2-c1ncccn1 [compound 881, 6-[3-cyano-6-ethyl-5-fluoro-1-(pyrimidin-2-yl)-1H-indol-2-yl]-2-methyl-N-[(2S)-1,1,1-trifluoropropan-2-yl]pyridine-3-sulfonamide]
[1]
  IC50: < 500 nM
other
  melting point: 258 to 262 °C

## Cc1cc2c(cc1F)c(C#N)c(-c1ccc(S(=O)(=O)N[C@@H](C)C(F)(F)F)cn1)n2-c1ccc(C#N)s1 [compound 1033, 6-[3-cyano-1-(5-cyanothiophen-2-yl)-5-fluoro-6-methyl-1H-indol-2-yl]-N-[(2S)-1,1,1-trifluoropropan-2-yl]pyridine-3-sulfonamide]
[1]
  IC50: < 500 nM
other
  melting point: 182 to 184.6 °C

## CCc1cc2c(cc1F)c(C#N)c(-c1ccc(S(=O)(=O)N[C@@H](C)C(F)(F)F)cn1)n2-c1ncc(C)cn1 [compound 976, 6-[3-cyano-6-ethyl-5-fluoro-1-(5-methylpyrimidin-2-yl)-1H-indol-2-yl]-N-[(2S)-1,1,1-trifluoropropan-2-yl]pyridine-3-sulfonamide]
[1]
  IC50: < 500 nM
other
  melting point: 201 to 206 °C

## Cc1cc2c(cc1F)c(C#N)c(-c1ccc(S(=O)(=O)NC(CF)CF)cn1)n2C1CCC1 [compound 108, 6-(3-cyano-1-cyclobutyl-5-fluoro-6-methyl-1H-indol-2-yl)-N-(1,3-difluoropropan-2-yl)pyridine-3-sulfonamide]
[1]
  IC50: < 500 nM
other
  melting point: 186 to 188 °C

## Cc1cc2c(C#N)c(-c3ccc(S(=O)(=O)N[C@@H](C)C(F)(F)F)cn3)n(C3CCCC3)c2cc1F [compound 483, 6-(3-cyano-1-cyclopentyl-6-fluoro-5-methyl-1H-indol-2-yl)-N-[(2S)-1,1,1-trifluoropropan-2-yl]pyridine-3-sulfonamide]
[1]
  IC50: < 500 nM
other
  melting point: 219 to 223 °C

## CCc1cc2c(cc1F)c(C#N)c(-c1ccc(S(=O)(=O)N[C@@H](C)C(F)(F)F)cn1)n2-c1ccc(F)c(Cl)c1 [compound 1062, 6-[1-(3-chloro-4-fluorophenyl)-3-cyano-6-ethyl-5-fluoro-1H-indol-2-yl]-N-[(2S)-1,1,1-trifluoropropan-2-yl]pyridine-3-sulfonamide]
[1]
  IC50: < 500 nM
other
  melting point: 228 to 232 °C

## Cc1ccc2c(c1)c(C#N)c(-c1ccc(S(=O)(=O)N[C@@H](C)C(F)(F)F)cn1)n2-c1ncc(F)cn1 [compound 948, 6-[3-cyano-1-(5-fluoropyrimidin-2-yl)-5-methyl-1H-indol-2-yl]-N-[(2S)-1,1,1-trifluoropropan-2-yl]pyridine-3-sulfonamide]
[1]
  IC50: < 500 nM
other
  melting point: 202 to 207 °C

## CCc1cc2c(cc1F)c(C(N)=O)c(-c1ccc(S(=O)(=O)N[C@@H](C)C(F)(F)F)cn1)n2-c1ccc(Cl)cc1 [compound 1020, 1-(4-chlorophenyl)-6-ethyl-5-fluoro-2-(5-{[(2S)-1,1,1-trifluoropropan-2-yl]sulfamoyl}pyridin-2-yl)-1H-indole-3-carboxamide]
[1]
  IC50: < 500 nM
other
  melting point: 240 to 247 °C

## CC(C)(NS(=O)(=O)c1ccc(-c2c(C#N)c3ccc(OC(F)F)cc3n2-c2ccccn2)nc1)C(F)(F)F [compound 583, 6-[3-cyano-6-(difluoromethoxy)-1-(pyridin-2-yl)-1H-indol-2-yl]-N-(1,1,1-trifluoro-2-methylpropan-2-yl)pyridine-3-sulfonamide]
[1]
  IC50: < 500 nM
other
  melting point: 170 to 173 °C

## C[C@H](NS(=O)(=O)c1ccc(-c2c(C#N)c3ccc(F)cc3n2C2CCCCC2)nc1)C(F)(F)F [compound 394, 6-(3-cyano-1-cyclohexyl-6-fluoro-1H-indol-2-yl)-N-[(2S)-1,1,1-trifluoropropan-2-yl]pyridine-3-sulfonamide]
[1]
  IC50: < 500 nM
other
  melting point: 213 to 215 °C

## COc1ccc2c(c1)c(C#N)c(-c1ccc(S(=O)(=O)N[C@H](C)C(F)(F)F)cn1)n2C1CCC1 [compound 500, 6-(3-cyano-1-cyclobutyl-5-methoxy-1H-indol-2-yl)-N-[(2R)-1,1,1-trifluoropropan-2-yl]pyridine-3-sulfonamide]
[1]
  IC50: < 500 nM
other
  melting point: 181 to 186 °C

## Cc1cc2c(cc1F)c(C(N)=O)c(-c1ccc(S(=O)(=O)NC3(C(F)(F)F)CC3)cn1)n2C1CCCC1 [compound 730, 1-cyclopentyl-5-fluoro-6-methyl-2-(5-{[1-(trifluoromethyl)cyclopropyl]sulfamoyl}pyridin-2-yl)-1H-indole-3-carboxamide]
[1]
  IC50: < 500 nM
other
  melting point: 220 to 221 °C

## Cc1ccc2cc(-c3ccc(S(=O)(=O)NC(CF)CF)cn3)n(C3CCC3)c2c1 [compound 511, 6-(1-cyclobutyl-6-methyl-1H-indol-2-yl)-N-(1,3-difluoropropan-2-yl)pyridine-3-sulfonamide]
[1]
  IC50: < 500 nM
other
  melting point: 137 to 139 °C

## CCc1cc2c(cc1F)c(C#N)c(-c1ncc(S(=O)(=O)N[C@@H](C)C(F)(F)F)cc1C)n2-c1ccccn1 [compound 870, 6-[3-cyano-6-ethyl-5-fluoro-1-(pyridin-2-yl)-1H-indol-2-yl]-5-methyl-N-[(2S)-1,1,1-trifluoropropan-2-yl]pyridine-3-sulfonamide]
[1]
  IC50: < 500 nM
other
  melting point: 195 to 198 °C
